Like-named read-outs stand apart in the source and are kept apart here.
Key:
Type in all cases: cell-based
human TLR8 = biological target: T1, human TLR8 (Homo sapiens, UniProt Q9NR97); test: TLR8 inhibition reporter assay (HEK-Blue cells, secreted embryonic alkaline phosphatase reporter); conditions: HEK-Blue cells overexpressing human TLR8, stimulated with R848 15.9 μM; read-out: TLR 8 IC50
T1 construct: host or cells: HEK-Blue cells (HEK293-derived reporter line)
T1 sequence (Q9NR97 27-1041): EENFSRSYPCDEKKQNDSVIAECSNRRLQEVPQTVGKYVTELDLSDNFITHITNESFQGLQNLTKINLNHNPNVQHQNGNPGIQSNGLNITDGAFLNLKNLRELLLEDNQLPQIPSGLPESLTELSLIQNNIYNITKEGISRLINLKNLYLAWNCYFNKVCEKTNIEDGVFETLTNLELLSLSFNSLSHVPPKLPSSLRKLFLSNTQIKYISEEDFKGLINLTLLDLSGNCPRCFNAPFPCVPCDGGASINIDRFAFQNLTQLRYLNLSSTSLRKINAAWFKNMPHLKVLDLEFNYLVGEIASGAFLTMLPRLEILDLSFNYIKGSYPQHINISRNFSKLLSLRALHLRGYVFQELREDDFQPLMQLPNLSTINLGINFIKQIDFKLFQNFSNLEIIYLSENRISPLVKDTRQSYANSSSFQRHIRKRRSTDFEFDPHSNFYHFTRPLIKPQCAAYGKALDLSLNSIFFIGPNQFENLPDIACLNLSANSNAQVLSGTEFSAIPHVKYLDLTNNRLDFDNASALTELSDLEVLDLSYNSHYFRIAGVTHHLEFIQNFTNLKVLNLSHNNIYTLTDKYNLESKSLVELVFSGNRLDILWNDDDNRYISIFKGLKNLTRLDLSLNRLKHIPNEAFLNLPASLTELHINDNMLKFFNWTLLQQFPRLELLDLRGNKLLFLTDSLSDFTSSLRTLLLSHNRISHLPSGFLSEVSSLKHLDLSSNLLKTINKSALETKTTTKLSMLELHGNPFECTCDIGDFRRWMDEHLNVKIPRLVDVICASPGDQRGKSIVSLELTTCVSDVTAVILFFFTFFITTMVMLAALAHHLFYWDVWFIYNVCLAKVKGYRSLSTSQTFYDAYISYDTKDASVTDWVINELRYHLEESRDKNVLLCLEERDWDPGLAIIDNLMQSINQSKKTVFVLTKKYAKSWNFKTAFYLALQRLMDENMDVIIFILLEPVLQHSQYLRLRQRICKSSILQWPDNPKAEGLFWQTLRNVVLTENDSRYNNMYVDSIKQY
Summary of the method: (§1)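 HEK-Blue cells overexpressing the respective receptor, with an NF-κB/AP-1-driven SEAP reporter, were pre-treated with compound (0.05 nM–50 μM) for 30 min at room temperature. Stimulation used gardiquimod 7.5 μM (TLR7), R848 15.9 μM (TLR8) or ODN2006 5 nM (TLR9); SEAP was read after 22 h at 37 °C as percent inhibition.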

human TLR9 = biological target: T2, human TLR9 (Homo sapiens, UniProt Q9NR96); test: TLR9 inhibition reporter assay (HEK-Blue cells, secreted embryonic alkaline phosphatase reporter)
T2 construct: host or cells: HEK-Blue cells (HEK293-derived reporter line)
T2 sequence (Q9NR96 26-1032): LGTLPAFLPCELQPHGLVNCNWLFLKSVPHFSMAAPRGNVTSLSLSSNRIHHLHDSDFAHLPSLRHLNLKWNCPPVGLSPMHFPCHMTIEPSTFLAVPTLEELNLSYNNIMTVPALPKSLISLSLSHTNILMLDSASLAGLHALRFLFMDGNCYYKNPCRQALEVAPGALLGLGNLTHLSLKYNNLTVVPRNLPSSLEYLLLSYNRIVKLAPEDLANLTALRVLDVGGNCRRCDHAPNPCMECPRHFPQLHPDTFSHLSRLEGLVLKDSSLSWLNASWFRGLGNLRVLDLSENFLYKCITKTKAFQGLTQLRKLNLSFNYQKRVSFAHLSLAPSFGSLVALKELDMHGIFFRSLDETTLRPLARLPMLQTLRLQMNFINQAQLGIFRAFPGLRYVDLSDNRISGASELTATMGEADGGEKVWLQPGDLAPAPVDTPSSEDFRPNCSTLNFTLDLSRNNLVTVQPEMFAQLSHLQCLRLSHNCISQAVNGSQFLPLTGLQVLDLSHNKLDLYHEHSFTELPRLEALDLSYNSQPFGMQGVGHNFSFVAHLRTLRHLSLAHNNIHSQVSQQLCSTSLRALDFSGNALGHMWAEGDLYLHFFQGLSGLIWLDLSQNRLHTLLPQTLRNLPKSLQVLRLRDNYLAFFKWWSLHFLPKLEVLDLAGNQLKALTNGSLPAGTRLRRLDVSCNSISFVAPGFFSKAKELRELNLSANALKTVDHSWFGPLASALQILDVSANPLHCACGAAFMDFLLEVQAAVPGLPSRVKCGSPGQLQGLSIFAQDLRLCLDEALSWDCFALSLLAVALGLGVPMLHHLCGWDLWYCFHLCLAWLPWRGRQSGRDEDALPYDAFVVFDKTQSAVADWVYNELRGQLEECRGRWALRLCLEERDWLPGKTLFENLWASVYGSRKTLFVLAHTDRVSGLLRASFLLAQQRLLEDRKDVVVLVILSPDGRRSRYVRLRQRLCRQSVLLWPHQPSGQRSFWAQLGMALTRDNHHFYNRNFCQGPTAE
Summary of the method: as §1

human TLR7 = biological target: T3, human TLR7 (Homo sapiens, UniProt Q9NYK1); test: TLR7 inhibition reporter assay (HEK-Blue cells, secreted embryonic alkaline phosphatase reporter); conditions: HEK-Blue cells overexpressing human TLR7, stimulated with gardiquimod 7.5 μM; read-out: TLR 7 IC50
T3 construct: host or cells: HEK-Blue cells (HEK293-derived reporter line)
T3 sequence (Q9NYK1 27-1049): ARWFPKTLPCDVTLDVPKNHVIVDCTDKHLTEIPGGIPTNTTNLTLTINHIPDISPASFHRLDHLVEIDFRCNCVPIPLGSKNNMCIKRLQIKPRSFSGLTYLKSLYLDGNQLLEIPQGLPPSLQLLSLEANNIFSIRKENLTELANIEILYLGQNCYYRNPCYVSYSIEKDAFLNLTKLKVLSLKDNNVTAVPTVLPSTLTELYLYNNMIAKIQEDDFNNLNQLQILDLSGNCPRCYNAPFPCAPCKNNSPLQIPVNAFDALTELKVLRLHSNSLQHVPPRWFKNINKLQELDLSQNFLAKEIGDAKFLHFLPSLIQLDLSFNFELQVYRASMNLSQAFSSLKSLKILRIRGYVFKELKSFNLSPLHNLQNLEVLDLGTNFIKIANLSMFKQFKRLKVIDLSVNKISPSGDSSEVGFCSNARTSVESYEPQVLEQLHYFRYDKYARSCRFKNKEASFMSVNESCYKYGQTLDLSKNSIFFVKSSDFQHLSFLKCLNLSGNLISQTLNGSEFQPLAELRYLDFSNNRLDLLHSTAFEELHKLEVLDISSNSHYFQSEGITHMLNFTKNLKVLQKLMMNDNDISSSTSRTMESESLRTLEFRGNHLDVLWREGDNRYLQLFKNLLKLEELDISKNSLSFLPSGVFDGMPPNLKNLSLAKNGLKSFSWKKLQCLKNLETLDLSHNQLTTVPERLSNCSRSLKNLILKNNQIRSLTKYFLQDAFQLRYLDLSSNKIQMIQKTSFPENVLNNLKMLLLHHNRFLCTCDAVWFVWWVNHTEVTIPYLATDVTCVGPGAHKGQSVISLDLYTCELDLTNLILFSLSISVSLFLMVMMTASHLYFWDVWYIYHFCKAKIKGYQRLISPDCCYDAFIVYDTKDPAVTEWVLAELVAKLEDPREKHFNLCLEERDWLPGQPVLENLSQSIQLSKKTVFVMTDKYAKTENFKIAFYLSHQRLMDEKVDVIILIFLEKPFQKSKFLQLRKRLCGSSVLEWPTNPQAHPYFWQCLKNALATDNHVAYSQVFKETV
Summary of the method: as §1

[1] = HEK-Blue cells overexpressing human TLR9, stimulated with ODN2006 5 nM, read-out: TLR 9 IC50

Structure (SMILES)	IC50 (human TLR8) [µM]	IC50 (human TLR9) [nM]	IC50 (human TLR9; [1]) [nM]	IC50 (human TLR7) [µM]
COc1ccc(-c2nc3c(C)cc(C4CCN(C5CC6CCC(C5)N6C5COC5)CC4)cc3n2C)cc1OC (single isomer, unassigned) [Example 165, 2-(3,4-dimethoxyphenyl)-1,4-dimethyl-6-(1-(8-(oxetan-3-yl)-8-azabicyclo[3.2.1]octan-3-yl)piperidin-4-yl)-1H-benzo[d]imidazole]	> 25	1300	1300	> 25
COc1ccc(-c2nc3c(C)cc(C4CCN(C5CC6CCC(C5)N6C5CCOCC5)CC4)cc3n2C)cc1OC (single isomer, unassigned) [Example 166, 2-(3,4-dimethoxyphenyl)-1,4-dimethyl-6-(1-(8-(tetrahydro-2H-pyran-4-yl)-8-azabicyclo[3.2.1]octan-3-yl)piperidin-4-yl)-1H-benzo[d]imidazole]	> 25	40	40	4.7
COc1ccc(-c2nc3c(C)cc(C4CCN(C5CC6CCC(C5)N6C5CCOCC5)CC4)cc3n2C)cc1OC (single isomer, unassigned) [Example 167, 2-(3,4-dimethoxyphenyl)-1,4-dimethyl-6-(1-(8-(tetrahydro-2H-pyran-4-yl)-8-azabicyclo[3.2.1]octan-3-yl)piperidin-4-yl)-1H-benzo[d]imidazole]	> 25	790	788	> 25
COCCN1C2CCC1CC(N1CCC(c3cc(C)c4nc(-c5ccc(OC)c(OC)c5)n(C)c4c3)CC1)C2 (single isomer, unassigned) [Example 168, 2-(3,4-dimethoxyphenyl)-6-(1-(8-(2-methoxyethyl)-8-azabicyclo[3.2.1]octan-3-yl)piperidin-4-yl)-1,4-dimethyl-1H-benzo[d]imidazole]	> 25	51	51	14
COCCN1C2CCC1CC(N1CCC(c3cc(C)c4nc(-c5ccc(OC)c(OC)c5)n(C)c4c3)CC1)C2 (single isomer, unassigned) [Example 169, 2-(3,4-dimethoxyphenyl)-6-(1-(8-(2-methoxyethyl)-8-azabicyclo[3.2.1]octan-3-yl)piperidin-4-yl)-1,4-dimethyl-1H-benzo[d]imidazole]	23.7	200	204	10.5
CC(C)CN1C2CCC1CC(N1CCC(c3ccc4c(nc(-c5ccc(S(C)(=O)=O)cc5)n4C)c3F)CC1)C2 (single isomer, unassigned) [Example 189, 4-fluoro-5-(1-(8-isobutyl-8-azabicyclo[3.2.1]octan-3-yl)piperidin-4-yl)-1-methyl-2-(4-(methylsulfonyl)phenyl)-1H-benzo[d]imidazole]	> 50	150	154	> 50
CC(C)CN1C2CCC1CC(N1CCC(c3ccc4c(nc(-c5ccc(S(C)(=O)=O)cc5)n4C)c3F)CC1)C2 (single isomer, unassigned) [Example 190, 4-fluoro-5-(1-(8-isobutyl-8-azabicyclo[3.2.1]octan-3-yl)piperidin-4-yl)-1-methyl-2-(4-(methylsulfonyl)phenyl)-1H-benzo[d]imidazole]	> 50	2600	2630	> 50

Second part, the compound after the results:

IC50 (human TLR8) [µM]	IC50 (human TLR9) [nM]	IC50 (human TLR9; [1]) [nM]	IC50 (human TLR7) [µM]	Structure (SMILES)
> 50	96	96	3.8	Cn1c(-c2ccc(S(C)(=O)=O)cc2)nc2c(F)c(C3CCN(C4CC5CCC(C4)N5CC4CC4)CC3)ccc21 (single isomer, unassigned) [Example 191, 5-(1-(8-(cyclopropylmethyl)-8-azabicyclo[3.2.1]octan-3-yl)piperidin-4-yl)-4-fluoro-1-methyl-2-(4-(methylsulfonyl)phenyl)-1H-benzo[d]imidazole]
> 50	190	186	> 50	Cn1c(-c2ccc(S(C)(=O)=O)cc2)nc2c(F)c(C3CCN(C4CC5CCC(C4)N5CC4CC4)CC3)ccc21 (single isomer, unassigned) [Example 192, 5-(1-(8-(cyclopropylmethyl)-8-azabicyclo[3.2.1]octan-3-yl)piperidin-4-yl)-4-fluoro-1-methyl-2-(4-(methylsulfonyl)phenyl)-1H-benzo[d]imidazole]
> 50	82	82	> 50	Cn1c(-c2ccc(S(C)(=O)=O)cc2)nc2c(F)c(C3CCN(C4CC5CCC(C4)N5CC4COC4)CC3)ccc21 (single isomer, unassigned) [Example 193, 4-fluoro-1-methyl-2-(4-(methylsulfonyl)phenyl)-5-(1-(8-(oxetan-3-ylmethyl)-8-azabicyclo[3.2.1]octan-3-yl)piperidin-4-yl)-1H-benzo[d]imidazole]

Source: patent US12492188B2, “1H-benzo[D]imidazole derivatives as TLR9 inhibitors for the treatment of fibrosis” (BRISTOL-MYERS SQUIBB COMPANY, priority 2020, dated 2025)
